Series [1] has as its target angiotensin converting enzyme (ACE) (Homo sapiens, UniProt P12821). The experiment in a line: ACE inhibitor activity (HHL substrate, OPA) and kinetics. The series is classed as biochemical. The note with it: mean ± SD, triplicate; nd = not detected. The protocol:
(§1) For all inhibitory activity, IC50 was calculated. The IC50 value defined as the concentration of the extract inhibiting 50% of the enzyme activity was determined by measuring the enzyme inhibitory activity and peptide contents in each sample. The IC50 value was calculated from the plotted graph of the inhibition activity for the five different peptide concentrations.
The angiotensin converting enzyme was prepared according to the method described by Karaś et al.. For ACE inhibitor activity, 5 μL of ACE was mixed with 5 μL of the samples and, after preincubation at 37 °C for 5 min, 5 μL of a 5 mM N-Hippuryl-L-histidyl-L-leucine (HHL) solution was added. The reaction was carried out at 37 °C for 60 min. Next, 0.1 M borate buffer with 0.2 M NaOH and 70 μL of an o-phthaldialdehyde OPA solution (20 mg/mL OPA in methanol) were added. The absorbance at 390 nm was measured using BioTek Microplate Readers ([…]).
(§2) Substrate solutions (5.0, 10.0, 15.0, and 20.0 mM) were prepared and used to determine the Michaelis constant (Km), the inhibition constant (Ki), and the maximum velocity (Vmax) of enzymes. The kinetic parameters were evaluated by Lineweaver–Burk’s method. The reaction conditions were the same as in the enzyme inhibitory activity assay.

The target in a further series is T1, COX-2 (Homo sapiens, UniProt P35354).
T1 construct: purchased Cayman Chemical 760151
T1 sequence (P35354 18-604): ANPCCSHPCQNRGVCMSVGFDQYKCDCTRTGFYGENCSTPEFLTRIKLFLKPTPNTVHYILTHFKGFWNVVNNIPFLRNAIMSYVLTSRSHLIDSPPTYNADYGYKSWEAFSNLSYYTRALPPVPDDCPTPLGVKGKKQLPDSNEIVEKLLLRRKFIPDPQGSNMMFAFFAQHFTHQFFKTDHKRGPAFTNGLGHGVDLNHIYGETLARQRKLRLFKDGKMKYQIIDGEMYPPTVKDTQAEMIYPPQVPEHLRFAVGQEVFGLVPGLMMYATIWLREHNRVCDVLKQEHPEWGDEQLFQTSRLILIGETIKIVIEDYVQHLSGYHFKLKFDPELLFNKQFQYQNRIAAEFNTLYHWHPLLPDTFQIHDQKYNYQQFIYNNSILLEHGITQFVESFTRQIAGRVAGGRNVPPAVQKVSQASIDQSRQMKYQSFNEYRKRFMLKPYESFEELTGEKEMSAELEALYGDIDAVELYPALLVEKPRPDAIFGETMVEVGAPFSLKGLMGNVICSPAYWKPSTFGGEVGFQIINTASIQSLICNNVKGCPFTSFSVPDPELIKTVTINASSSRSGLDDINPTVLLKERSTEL
The experiment in a line: COX-2 inhibitory activity (COX Activity Assay kit) and kinetics. The series is classed as biochemical. The note with it: mean ± SD, triplicate. The method, then:
as §1
The effect of the peptide on COX-1 and COX-2 was measured using the COX Activity Assay kit from Cayman Chemical (Item No. 760151, Ann Arbor, MI, USA). COX activity was determined according to the instructions provided with the kit. The enzyme activity was assayed by calorimetric measurement of the appearance of oxidized N,N,N′,N′-Tetramethyl-p-phenylenediamine (TMPD) at 590 nm using BioTek Microplate Readers (Epoch™ 2 BioTek, Bad Friedrichshall, Germany).
as §2

Series [2] deals with HECa10 cells. The experiment in a line: MTT test. The format is cell-based, murine. Particulars: 24-h incubation, 0.1–100 µg/mL. The method, then:
(§3) The study was conducted according to the procedure described by Rokicki et al.. HECa10 cells after 80–90% confluence were trypsinized (3 min, 37 °C), centrifuged (300 g, 5 min), counted, and plated in 96-well plates at a concentration of 1 × 10^4 cells/well. Then, 24 h after seeding, cells were washed with phosphate-buffered saline (PBS) solution and culture medium (Dulbecco’s Modified Eagle Medium (DMEM) + 10% fetal bovine serum (FBS) + antibiotics, all from Life Technologies, Warsaw, Poland) was added with test factors in concentrations: 0.1; 1; 5; 10; 50; 100 µg/mL). Then, 24 h after addition of the compounds, proliferation tests (MTT, NR, LDH) were performed. The color intensity was determined using a Fluostar Omega microplate reader. Results are presented as the mean ± SD of 3 independent experiments (n = 12).
Briefly, the cells were seeded in a 96-well culture plate at a concentration of 1 × 10^4 cells/well. Then, 24 h after seeding, the cells were rinsed twice with PBS (Life Technologies, Warsaw, Poland) and resuspended in fresh growth medium. Peptide fractions were added at concentrations of 0 (control), 0.1, 1, 5, 10, 50, and 100 µg/mL. After 24 h incubation with the proteins, the assessment of cell metabolic activity based on MTT tests was performed (MTT kit, Sigma Aldrich, Poznań, Poland). The absorbance was measured at 570 nm with a FLUOstar Omega reader (BMG Labtech GmbH, Ortenberg, Germany). The results are presented as the percentage of the control values (mean ± SD). Each assay was performed in triplicate (n = 18).
In general terms: Tetrazolium assays rely on reduction of a dye to a coloured formazan, in cell work by metabolically active cells.

Series [3] relates to HECa10 cells. The experiment in a line: LDH test. The series is classed as cell-based, murine. Particulars: 24-h incubation, 0.1–100 µg/mL. The method, then: as §3
The cells were seeded in a 96-well culture plate at a concentration of 1 × 10^4 cells/well. Then, 24 h after seeding, the cells were rinsed twice with PBS (Life Technologies, Poland) and resuspended in fresh growth medium. Peptide fractions were added at concentrations of 0 (control), 0.1, 1, 5, 10, 50, and 100 µg/mL. After 24 h incubation with the proteins, activity of released from cells lactate dehydrogenase was assessed (Pierce Ldh Cytotoxicity Assay Kit, Life Technologies, Warsaw Poland).The absorption was measured at a wavelength of 540 nm with the background cutoff at 490 nm (FLUOstar Omega, BMG Labtech GmbH, Ortenberg, Germany). The results are presented as the percentage of the control values (mean ± SD). Each assay was performed in triplicate (n = 18).

No end group written: not given here.

angiotensin converting enzyme (ACE), sequence (P12821 30-1306, species assumed): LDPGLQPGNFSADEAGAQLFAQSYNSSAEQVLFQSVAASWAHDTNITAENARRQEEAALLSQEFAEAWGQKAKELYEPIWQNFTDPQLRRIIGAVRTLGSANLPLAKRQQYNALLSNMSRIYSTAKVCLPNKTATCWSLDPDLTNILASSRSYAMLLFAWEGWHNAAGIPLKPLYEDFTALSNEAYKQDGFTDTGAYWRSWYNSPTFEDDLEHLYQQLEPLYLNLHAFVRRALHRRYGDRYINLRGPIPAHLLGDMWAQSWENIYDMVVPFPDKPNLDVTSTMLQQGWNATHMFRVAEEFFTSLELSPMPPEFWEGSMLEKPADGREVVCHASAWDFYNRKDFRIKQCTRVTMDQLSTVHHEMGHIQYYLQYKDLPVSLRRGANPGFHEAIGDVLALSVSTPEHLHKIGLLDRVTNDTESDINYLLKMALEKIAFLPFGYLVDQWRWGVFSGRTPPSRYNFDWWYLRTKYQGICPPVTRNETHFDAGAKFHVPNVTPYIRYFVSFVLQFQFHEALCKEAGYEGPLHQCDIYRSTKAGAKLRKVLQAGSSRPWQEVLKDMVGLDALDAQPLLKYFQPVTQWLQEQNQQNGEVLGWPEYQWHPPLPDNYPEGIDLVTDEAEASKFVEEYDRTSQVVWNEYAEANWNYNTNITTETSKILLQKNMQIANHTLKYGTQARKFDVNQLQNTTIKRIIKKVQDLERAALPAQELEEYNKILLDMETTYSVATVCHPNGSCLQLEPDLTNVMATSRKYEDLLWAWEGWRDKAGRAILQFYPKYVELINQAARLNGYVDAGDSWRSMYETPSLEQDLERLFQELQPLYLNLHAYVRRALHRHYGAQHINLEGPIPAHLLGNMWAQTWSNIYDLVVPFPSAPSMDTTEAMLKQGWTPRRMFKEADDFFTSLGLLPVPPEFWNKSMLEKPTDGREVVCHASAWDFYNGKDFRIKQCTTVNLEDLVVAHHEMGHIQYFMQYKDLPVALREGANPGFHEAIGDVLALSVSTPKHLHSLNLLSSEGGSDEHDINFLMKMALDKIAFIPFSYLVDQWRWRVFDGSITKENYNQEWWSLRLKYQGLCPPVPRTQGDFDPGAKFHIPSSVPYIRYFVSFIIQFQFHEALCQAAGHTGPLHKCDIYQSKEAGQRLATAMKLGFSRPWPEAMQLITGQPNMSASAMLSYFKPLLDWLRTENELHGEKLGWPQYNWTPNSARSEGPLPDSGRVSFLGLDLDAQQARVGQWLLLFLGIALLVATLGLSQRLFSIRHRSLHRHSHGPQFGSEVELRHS

As a reminder, the IC50 is the concentration at which inhibition is half-maximal. As to EQGFLPGPEESGR [ER-13, EQGFLPGPEESGR], the values for the IC50 (in series [1]; at COX-2) were 457 µM and 3.07 µM, respectively. For the same sequence, in the series with HECa10 cells [2], the “MTT test, HECa10 cell count compared to control” value (“MTT test … compared to control” below) is reported as “no statistically significant differences”. Moreover, the “LDH activity test, HECa10 cells compared to control” value with HECa10 cells [3] was “no statistically significant differences”.

“GEHGGAGMGGGQFQPV [GV-16, GEHGGAGMGGGQFQPV]”: the concentration for half-maximal inhibition (IC50) in series [1] was 490 µM; against COX-2, 30.2 µM. Besides, the “MTT test … compared to control” value in the series with HECa10 cells [2] was “no statistically significant differences”. The “LDH activity test, HECa10 cells compared to control” value in the series with HECa10 cells [3] is reported as “no statistically significant differences”.

Turning to GNPVGGVGHGTTGT [GT-14, GNPVGGVGHGTTGT], the IC50 in series [1] was 434 µM; at COX-2 it was 3.66 µM. For the same sequence, in the series with HECa10 cells [2], the “MTT test … compared to control” value is “no statistically significant differences”. For the same sequence, the “LDH activity test, HECa10 cells compared to control” value in the series with HECa10 cells [3] was “no statistically significant differences”.

Regarding GQLGEHGGAGMG [GG-12, GQLGEHGGAGMG], the IC50 in series [1] was 525 µM; at COX-2, 15.7 µM. Moreover, the “MTT test … compared to control” value with HECa10 cells [2] is “no statistically significant differences”. In the series with HECa10 cells [3], the “LDH activity test, HECa10 cells compared to control” value is “no statistically significant differences”.

In the case of RLARAGLAQ [RQ-9, RLARAGLAQ], the “IC50 ACE” value in series [1] was “no inhibitory effect”. This sequence also gave an IC50 on COX-2 of 4.99 µM. For the same sequence, the “MTT test … compared to control” value in the series on HECa10 cells [2] is given as “no statistically significant differences”. The “LDH activity test, HECa10 cells compared to control” value in the series on HECa10 cells [3] is “no statistically significant differences”.

As to YGNPVGGVGH [YH-10, YGNPVGGVGH], the IC50 in series [1] was 522 µM; on COX-2 it was 16.2 µM. Further, the “MTT test … compared to control” value in the series with HECa10 cells [2] is “declined statistically significantly”. In the series with HECa10 cells [3], the “LDH activity test, HECa10 cells compared to control” value is “no statistically significant differences”.

The record behind these values is publication PMC7321301, “Characteristics of New Peptides GQLGEHGGAGMG, GEHGGAGMGGGQFQPV, EQGFLPGPEESGR, RLARAGLAQ, YGNPVGGVGH, and GNPVGGVGHGTTGT as Inhibitors of Enzymes Involved in Metabolic Syndrome and Antimicrobial Potential” (Molecules, 2020).
